Data: paper PMC8805583, “Discovery of Herbacetin as a Novel SGK1 Inhibitor to Alleviate Myocardial Hypertrophy” (Advanced Science, 2021)

Assays:
ISO mice = test: ISO-induced cardiac hypertrophy in mice; format: in vivo
Procedure: Finally, we assessed the cardioprotective effect of HBT in mice infused with the hypertrophic agonist isoproterenol (ISO). Mice were challenged with ISO for 21 days via subcutaneous injection and then were administered with 10 mg kg^−1 of HBT once per day until the mice were sacrificed (Figure 7A).
For isoproterenol (ISO)‐mediated cardiac hypertrophy, mice were randomly divided into 3 groups, control group (Ctrl), ISO group and ISO plus HBT group (HBT), 5 mg kg^−1 day^−1 ISO was given for 21 days by subcutaneous injection. The control mice were treated with 1% DMSO‐vehicle. At the same time, male C57BL/6 mice in HBT group were intraperitoneally injected with 10 mg kg^−1 d^−1 HBT diluted with a solution containing 1% DMSO and 99% saline. Echocardiography was performed on conscious mice using a Vevo 2100 system. M‐mode images of the left ventricular short axis were captured. After echocardiography evaluation, the mice were anesthetized via intraperitoneal injection of 240 mg kg^−1 pentobarbital sodium and were euthanized by excising the heart rapidly.

rat cardiomyocytes = test: ROS (DCFH-DA) and Ca2+ (Fluo-4 AM) detection in PE-stimulated cardiomyocytes; format: cell-based
Text: Elevated cytoplasmic calcium was also observed in PE‐stimulated rat cardiomyocytes after Fluo‐4 AM staining. […] Since the channel subunit Orai1 and stromal interaction molecule 1 (STIM1) are known to participate in the orchestration of Ca^2+ entry into cells and are regulated by multiple kinases including SGK1,^[ [33] ^] we examined if HBT regulates their activities. […] Orai1 may be regulated by Nedd4‐like E3 ubiquitin protein ligase (Nedd4l) mediated degradation or the transcription factor nuclear factor‐κB (NF‐κB) dependent transcription, so we detected the effects of HBT on SGK1 downstream proteins. […] Therefore, HBT may also attenuate cardiomyocyte hypertrophy by reducing cytoplasmic calcium level.
Fluo-4 AM were obtained from Beyotime. SGK1 antibody and GAPDH antibody were obtained from Beyotime. FoxO1, Phospho-FoxO1 (Ser256), p44/42 MAPK (Erk1/2), […]
p65, Phospho-GSK-3β (Ser9), GSK-3β, Phospho-NDRG1 (Thr346), NDRG1, Phospho-NEDD4L (Ser342), NEDD4L, HO-1, Nrf2 and MnSOD antibody were obtained from Cell Signaling. Phospho-SGK1(S422) antibody was obtained from Affinity. Orai1, STIM1, ACTA1 and FLAG antibody were obtained from Proteintech. BNP antibody was obtained from Abcam. ANP antibody was obtained from Santa Cruz Biotechnology. Myosin antibody was obtained from Sigma-Aldrich. Reference compounds were obtained from Shanghai Yuanye Biotechnology. Lipofectamine 2000 transfection reagent was purchased from Invitrogen. Protein A/G agarose was purchased from Beaver Biotechnology.
Phenylephrine (PE) was obtained from Aladdin. Deionized water was prepared with an Elga PURELAB flex system (ELGA LabWater, UK). […]
Micro® Confocal High-Content Imaging System (Molecular Devices). […]
BSA for 1 h, the cells were incubated overnight at 4 °C with rabbit anti-FoxO1 antibody and then with goat anti-rabbit AlexaFluor 488–conjugated antibody for 1 h at room temperature.
Nuclei were stained with Hoechst. Images were acquired using a high-resolution laser confocal microscope (Leica) using an oil immersion A-Plan ×63 objective.
3. ROS and Ca2+ Detection
ROS and Ca2+ levels were detected using DCFH-DA and Fluo-4 AM reagent (Beyotime) respectively according to the manufacturer’s instructions. After incubated for 48 hours, the supernatant was removed and cells were washed with PBS for three times. 100 μL DCFH-DA […]
or Fluo-4 AM working solution was added to each well and incubated at 37℃ for 20 minutes.
Then the cells were washed with PBS for 3 times and images were acquired using an ImageXpress Micro® Confocal High-Content Imaging System (Molecular Devices). The mean fluorescence intensity of cells positive for DCFH-DA or Fluo-4 AM staining was […]
4. Histology and Immunohistochemistry (IHC) […]
(Sigma) according to the manufacturer’s protocol. […]

Question: Which results are given for `O=c1c(O)c(-c2ccc(O)cc2)oc2c(O)c(O)cc(O)c12` [HBT, herbacetin]?
Answer: toxicity (ISO mice; 10 mg kg−1 d−1 for 21 days): without causing any significant toxicity; left ventricular ejection fraction (EF%) and fraction shortening (FS%) (ISO mice; ISO 5 mg kg−1 d−1 21 days, HBT 10 mg kg−1 d−1 intraperitoneally): increased; decreased Bcl-2 and MnSOD levels (ISO mice; ISO mice): almost completely reversed; serum NT-proBNP (ISO mice; ISO mice, ELISA): decreased level; heart weight/tibial length (HW/TL) (ISO mice; ISO mice, HBT 10 mg kg−1): reduce the HW/TL level; left ventricular volume (LV Vol;d and LV Vol;s) (ISO mice; ISO mice, HBT 10 mg kg−1): decreased; accumulation of collagen fibrosis (ISO mice; ISO mice, Masson's staining): reduced; expression of p-SGK1, α-SMA and Col-3 (ISO mice; ISO mice, western blot): reduced expression; FoxO1 phosphorylation, STIM1 and Orai1 protein expression in heart tissue (ISO mice; ISO mouse model): significantly decreased; level of HO-1 and Nrf2 in heart tissue (ISO mice; ISO mouse model): increased; cytoplasmic calcium accumulation, Fluo-4 AM staining (rat cardiomyocytes; PE stimulation, cotreatment): effectively blocked; free radicals (ROS), DCFH-DA staining (rat cardiomyocytes; PE stimulation, cotreatment): greatly inhibited; MnSOD expression (rat cardiomyocytes; PE, western blot): restored; phosphorylation level of Erk (rat cardiomyocytes; PE, western blot): downregulated
